Where two headings read alike, the source gives them in different places.
Tests used:
[1] = Cytotoxicity in HeLa cells (ATP content, ATPlite kit); format: cell-based; conditions: human
Method in brief: (§1)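 Over 3 days at 37 °C, compound titrations (4-fold steps, nine dilutions) were tested on HeLa cells infected with rgRSV224 (MOI = 1), inhibition of GFP signal giving EC50. In parallel plates, ATP content of HeLa cells after 3-day exposure defined CC50.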

rgRSV224 virus = experiment: Antiviral activity: rgRSV224 (GFP) replication in HeLa cells; format: cell-based, respiratory syncytial virus (RSV)
Method in brief: as §1

[2] = human respiratory syncytial virus, HeLa, comparison table 5.3, antiviral RSV assay of Example 5.1
[3] = human respiratory syncytial virus, HeLa, 72 h, read-out: RSV HELA EC50, HeLa cells, rgRSV224 MOI = 1, GFP expression three days post-virus exposure, averaged data of several repeat experiments

Compound	CC50 at 3 days ([1]; CC50)	CC50 at 3 days ([1]; TOX HELA CC50)	EC50 (rgRSV224 virus; [2])	EC50 (rgRSV224 virus; read-out: RSV HELA EC50, HeLa cells, rgRSV224 MOI = 1, GFP expression three days post-virus exposure, averaged data of several repeat experiments)	EC50 (rgRSV224 virus; [3])
COc1cc(C(=O)NC[C@](O)(c2cc(C(C)(C)O)c(F)c(-c3ccc(F)cc3)n2)C(F)(F)F)cc2cc(C)nnc12 [compound 234]	23 µM	23 µM	0.0006 µM	0.00082 µM	
COc1cc(C(=O)NC[C@](O)(c2cc(C(C)(C)NS(C)(=O)=O)c(F)c(-c3ccc(F)cc3)n2)C(F)(F)F)cc2cc(C)nnc12 [compound 237, (-)Methoxy-3-Methyl-N-{3,3,3-Trifluoro-2-[5-Fluoro-6-(4-Fluorophenyl)-4-{2-[(MethaneSulfonyl)Amino]propan-2-yl}Pyridin-2-yl]-2-Hydroxypropyl}Cinnoline-6-Carboxamide]		51 µM			0.0051 µM
COc1cc(C(=O)NC[C@](O)(c2cc(C(C)(C)O)c(F)c(-c3ccc(F)c(C)c3)n2)C(F)(F)F)cc2cc(C)nnc12 [compound 238, (+)Methoxy-3-Methyl-N-{3,3,3-Trifluoro-2-[5-Fluoro-6-(4-Fluoro-3-Methylphenyl)-4-(2-Hydroxypropan-2-yl)Pyridin-2-yl]-2-Hydroxypropyl}Cinnoline-6-Carboxamide]		23 µM			0.0029 µM
COc1cc(C(=O)NC[C@](O)(c2cc(C(C)(C)O)c(F)c(-c3ccc(F)c(F)c3)n2)C(F)(F)F)cc2cc(C)nnc12 [compound 239, (-)-N-{2-[6-(3,4-Difluorophenyl)-5-Fluoro-4-(2-Hydroxypropan-2-yl)Pyridin-2-yl]-3,3,3-Trifluoro-2-Hydroxypropyl}-8-Methoxy-3-Methylcinnoline-6-Carboxamide]		19 µM			0.0005 µM
COc1cc(C(=O)NC[C@](O)(c2nc(-c3ccc(F)cc3)c(F)c(C(C)(C)O)c2F)C(F)(F)F)cc2cc(C)nnc12 [compound 240, (-)-N-{2-[3,5-Difluoro-6-(4-Fluorophenyl)-4-(2-Hydroxypropan-2-yl)Pyridin-2-yl]-3,3,3-Trifluoro-2-Hydroxypropyl}-8-Methoxy-3-Methylcinnoline-6-Carboxamide]		46 µM			0.0012 µM
COc1cc(C(=O)NC[C@](O)(c2nc(-c3ccc(F)cc3)c(F)c(C(C)(C)NC(C)=O)c2F)C(F)(F)F)cc2cc(C)nnc12 [compound 241, (-)-N-{2-[4-(2-Acetamidopropan-2-yl)-3,5-Difluoro-6-(4-Fluorophenyl)Pyridin-2-yl]-3,3,3-Trifluoro-2-Hydroxypropyl}-8-Methoxy-3-Methylcinnoline-6-Carboxamide]		50 µM			0.0015 µM
COc1cc(C(=O)NC[C@@](O)(c2nc(-c3ccc(F)cc3)c(F)c(C(C)(C)NC(C)=O)c2F)C(F)(F)F)cc2cc(C)nnc12 [compound 242, (+)-N-{2-[4-(2-Acetamidopropan-2-yl)-3,5-Difluoro-6-(4-Fluorophenyl)Pyridin-2-yl]-3,3,3-Trifluoro-2-Hydroxypropyl}-8-Methoxy-3-Methylcinnoline-6-Carboxamide]		48 µM			0.17 µM
COc1cc(C(=O)NC[C@](O)(c2nc(-c3ccc(F)cc3)c(F)c(C(C)(C)NS(C)(=O)=O)c2F)C(F)(F)F)cc2cc(C)nnc12 [compound 243, (-)-N-{2-[3,5-Difluoro-6-(4-Fluorophenyl)-4-{2-[(Methanesulfoyl)Amino]Propan-2-yl}Pyridin-2-yl]-3,3,3-Trifluoro-2-Hydroxypropyl}-8-Methoxy-3-Methylcinnoline-6-Carboxamide]		45 µM			0.003 µM
COc1cc(C(=O)NC[C@@](O)(c2nc(-c3ccc(F)cc3)c(F)c(C(C)(C)NS(C)(=O)=O)c2F)C(F)(F)F)cc2cc(C)nnc12 [compound 244, (+)-N-{2-[3,5-Difluoro-6-(4-Fluorophenyl)-4-{2-[(Methanesulfonyl)Amino]Propan-2-yl}Pyridin-2-yl]-3,3,3-Trifluoro-2-Hydroxypropyl}-8-Methoxy-3-Methylcinnoline-6-Carboxamide]		43 µM			0.058 µM
COc1cc(C(=O)NC[C@](O)(c2nc(-c3ccc(F)cc3)c(Cl)c(C(C)(C)O)c2F)C(F)(F)F)cc2cc(C)nnc12 [compound 247, (-)-N-{2-[5-Chloro-3-Fluoro-6-(4-Fluorophenyl)-4-(2-Hydroxypropan-2-yl)Pyridin-2-yl]-3,3,3-Trifluoro-2-Hydroxypropyl}-8-Methoxy-3-Methylcinnoline-6-Carboxamide]		51 µM			0.0019 µM
COc1cc(C(=O)NC[C@](O)(c2cc(C(C)(C)O)c(Cl)c(-c3ccc(F)cc3)n2)C2CC2)cc2cc(C)nnc12 [compound 251, N-{(-)[5-Chloro-6-(4-Fluorophenyl)-4-(2-Hydroxypropanyl)Pyridinyl]CyclopropylHydroxyethyl}-8-Methoxy-3-Methylcinnoline-6-Carboxamide]		28 µM			0.00053 µM
COc1cc(C(=O)NC[C@](O)(c2cc(C(C)(C)O)c(F)c(-c3ccc(F)cc3)n2)C2CC2)cc2cc(C)nnc12 [compound 252, (-)-N-{2-Cyclopropyl-2-[5-Fluoro-6-(4-Fluorophenyl)-4-(2-Hydroxypropan-2-yl)Pyridin-2-yl]-2-Hydroxyethyl}-8-Methoxy-3-Methylcinnoline-6-Carboxamide]	38 µM	43 µM	0.0003 µM		0.0003 µM
Cc1cc2cc(C(=O)NC[C@](O)(c3cc(C(C)(C)O)c(Cl)c(-c4ccc(F)cc4)n3)C3CC3)cc(OC3CC3)c2nn1 [compound 264, (-)-N-{2-[5-Chloro-6-(4-Fluorophenyl)-4-(2-Hydroxypropan-2-yl)Pyridin-2-yl]-2-Cyclopropyl-2-Hydroxyethyl}-8-(Cyclopropyloxy)-3-Methylcinnoline-6-Carboxamide]		32 µM			0.00087 µM
Cc1cc2cc(C(=O)NC[C@](O)(c3cc(C(C)(C)O)c(F)c(-c4ccc(F)cc4)n3)C3CC3)cc(OC3CC3)c2nn1 [compound 265, (-)-N-{2-Cyclopropyl-2-[5-Fluoro-6-(4-Fluorophenyl)-4-(2-Hydroxypropan-2-yl)Pyridin-2-yl]-2-Hydroxyethyl}-8-(Cyclopropyloxy)-3-Methylcinnoline-6-Carboxamide]		39 µM			0.00069 µM
COc1cc(C(=O)NC[C@](O)(c2cc(C(C)(C)O)c(F)c(-c3ccc(F)cc3)n2)C(F)(F)F)cc2cc(C(F)F)nnc12 [compound 266, (-)(Difluoromethyl)-8-Methoxy-N-{3,3,3-Trifluoro-2-[5-Fluoro-6-(4-Fluorophenyl)-4-(2-Hydroxypropan-2-yl)Pyridin-2-yl]-2-Hydroxypropyl}Cinnoline-6-Carboxamide]		25 µM			0.0035 µM
COc1cc(C(=O)NC[C@](O)(c2cc(C(C)(C)O)c(Cl)c(-c3ccc(F)cc3)n2)C(F)(F)F)cc2cc(C(F)F)nnc12 [compound 267, (-)-N-{2-[5-Chloro-6-(4-Fluorophenyl)-4-(2-Hydroxypropan-2-yl)Pyridin-2-yl]-3,3,3-Trifluoro-2-Hydroxypropyl}-3-(Difluoromethyl)-8-Methoxycinnoline-6-Carboxamide]		14 µM			0.003 µM
COc1cc(C(=O)NC[C@](O)(c2cc(C(C)(C)O)c(Cl)c(-c3ccc(F)cc3)n2)C2CC2)cc2cc(C(F)F)nnc12 [compound 268, N-{(-)[5-Chloro-6-(4-Fluorophenyl)-4-(2-Hydroxypropanyl)Pyridinyl]CyclopropylHydroxyethyl}-3-(Difluoromethyl)-8-Methoxycinnoline-6-Carboxamide]		18 µM			0.00067 µM
COc1cc(C(=O)NC[C@](O)(c2cc(C(C)(C)O)c(F)c(-c3ccc(F)cc3)n2)C2CC2)cc2cc(C(F)F)nnc12 [compound 269]		20 µM			0.0012 µM
COc1cc(C(=O)NC[C@](O)(c2cc(C(C)(C)O)c(F)c(-c3ccc(F)c(F)c3)n2)C2CC2)cc2cc(C(F)F)nnc12 [compound 270, (-)-N-{2-Cyclopropyl-2-[6-(3,4-Difluorophenyl)-5-Fluoro-4-(2-Hydroxypropan-2-yl)Pyridin-2-yl]-2-Hydroxyethyl}-3-(Difluoromethyl)-8-Methoxycinnoline-6-Carboxamide]		15 µM			0.00084 µM
COc1cc(C(=O)NC[C@](O)(c2cc(C(C)(C)O)c(F)c(-c3ccc(F)cc3)n2)C2CC2)cc2cc(C3CC3)nnc12 [compound 271, 3-Cyclopropyl-N-{(-)-2-Cyclopropyl-2-[5-Fluoro-6-(4-Fluorophenyl)-4-(2-Hydroxypropan-2-yl)Pyridin-2-yl]-2-Hydroxyethyl)-8-Methoxycinnoline-6-Carboxamide]	11 µM	11 µM	0.0015 µM		0.0015 µM
Cc1cnc2c(OC3CC3)cc(C(=O)NC[C@](O)(c3cc(C(C)(C)O)c(F)c(-c4ccc(F)cc4)n3)C(F)(F)F)cc2c1 [compound 272, (-)8-(Cyclopropyloxy)-3-Methyl-N-{(2S)-3,3,3-Trifluoro-2-[5-Fluoro-6-(4-Fluorophenyl)-4-(2-Hydroxypropan-2-yl)Pyridin-2-yl]-2-Hydroxypropyl}Quinoline-6-Carboxamide]	17 µM	17 µM	0.004 µM		0.0037 µM
COc1cc(C(=O)NC[C@](O)(c2cc(C(C)(C)O)c(F)c(-c3ccc(F)cc3)n2)C(F)(F)F)cc2cc(C)c(F)nc12 [compound 273, (-)Fluoro-8-methoxy-3-methyl-n-(3,3,3-trifluoro(5-fluoro-6-(4-fluorophenyl)-4-(2-hydroxypropanyl)pyridinyl)hydroxypropyl)quinoline-6-carboxamide]		13 µM			0.00381 µM

Source: patent US20230203004A1, “RSV INHIBITING 3-SUBSTITUTED QUINOLINE AND CINNOLINE DERIVATIVES” (Janssen Sciences Ireland Unlimited Company, priority 2020, published 2023)
